Results reported in PubChem BioAssay (NCI).
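GI50 is the concentration that inhibits growth by half. The concentration for full growth arrest is given as TGI.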

Key:
Assay in all cases: inhibition of tumour cell growth, NCI panel, 384-well format
[1] = test system: OVCAR-3 ovarian
[2] = test system: MCF7 breast
[3] = test system: IGROV1 ovarian
[4] = test system: UACC-257 melanoma
[5] = test system: HL-60(TB) leukemia
[6] = test system: EKVX NSCLC
[7] = test system: BT-549 breast
[8] = test system: T-47D breast
[9] = test system: SK-MEL-28 melanoma
[10] = test system: CAKI-1 renal
[11] = test system: NCI-H460 NSCLC
[12] = test system: TK-10 renal
[13] = test system: PC-3 prostate
[14] = test system: M14 melanoma
[15] = test system: SK-OV-3 ovarian
[16] = test system: MDA-MB-435 melanoma
[17] = test system: RXF 393 renal
[18] = test system: K-562 leukemia
[19] = test system: OVCAR-4 ovarian
[20] = test system: SNB-19 CNS
[21] = test system: KM12 colon
[22] = test system: SF-539 CNS
[23] = test system: COLO 205 colon
[24] = test system: HOP-62 NSCLC
[25] = test system: SN12C renal
[26] = test system: U251 glioblastoma
[27] = test system: A549 NSCLC
[28] = test system: SK-MEL-2 melanoma
[29] = test system: MDA-MB-468 breast
[30] = test system: A498 renal
[31] = test system: NCI-H522 lung
[32] = test system: 786-0 renal
[33] = test system: SW-620 colon
[34] = test system: OVCAR-8 ovarian
[35] = test system: HT29 colon
[36] = test system: DU-145 prostate
[37] = test system: ACHN renal
[38] = test system: UO-31 renal
[39] = test system: NCI-H322M lung
[40] = test system: SK-MEL-5 melanoma
[41] = test system: HCT-116 colon
[42] = test system: HOP-92 NSCLC
[43] = test system: NCI-H226 lung
[44] = test system: OVCAR-5 ovarian
[45] = test system: SR leukemia
[46] = test system: SF-295 CNS
[47] = test system: MALME-3M melanoma
[48] = test system: HS 578T breast
[49] = test system: MOLT-4 leukemia
[50] = test system: SNB-75 CNS
[51] = test system: NCI-H23 lung
[52] = test system: UACC-62 melanoma
[53] = test system: HCT-15 colon
[54] = test system: MDA-MB-231 breast
[55] = test system: SF-268 CNS

SMILES: COc1cc(Nc2ncc(F)c(Nc3ccc4c(n3)N(COP(=O)(O)O)C(=O)C(C)(C)O4)n2)cc(OC)c1OC
- GI50 [1]: 1970 nM
- TGI [1]: 11100 nM
- GI50 [2]: 1910 nM
- TGI [2]: > 100000 nM
- GI50 [3]: 427 nM
- TGI [3]: 1600 nM
- GI50 [4]: 4060 nM
- TGI [4]: > 100000 nM
- GI50 [5]: 1570 nM
- TGI [5]: 3030 nM
- GI50 [6]: 1090 nM
- TGI [6]: 2630 nM
- GI50 [7]: 1300 nM
- TGI [7]: 2740 nM
- GI50 [8]: 2370 nM
- TGI [8]: 9310 nM
- GI50 [9]: 2340 nM
- TGI [9]: > 100000 nM
- GI50 [10]: 974 nM
- TGI [10]: 2160 nM
- GI50 [11]: 534 nM
- TGI [11]: 11300 nM
- GI50 [12]: 1380 nM
- TGI [12]: 3130 nM
- GI50 [13]: 2730 nM
- TGI [13]: 12300 nM
- GI50 [14]: 2410 nM
- TGI [14]: 38800 nM
- GI50 [15]: 871 nM
- TGI [15]: 2230 nM
- GI50 [16]: 2350 nM
- TGI [16]: 25400 nM
- GI50 [17]: 241 nM
- TGI [17]: 887 nM
- GI50 [18]: 2630 nM
- TGI [18]: 10800 nM
- GI50 [19]: 1450 nM
- TGI [19]: 4120 nM
- GI50 [20]: 1920 nM
- TGI [20]: 4970 nM
- GI50 [21]: 2900 nM
- TGI [21]: 10900 nM
- GI50 [22]: 618 nM
- TGI [22]: 1870 nM
- GI50 [23]: 1640 nM
- TGI [23]: 3670 nM
- GI50 [24]: 1450 nM
- TGI [24]: 3710 nM
- GI50 [25]: 724 nM
- TGI [25]: 7140 nM
- GI50 [26]: 1700 nM
- TGI [26]: 6870 nM
- GI50 [27]: 1520 nM
- TGI [27]: 3120 nM
- GI50 [28]: 2930 nM
- TGI [28]: 16500 nM
- GI50 [29]: 1700 nM
- TGI [29]: 3340 nM
- GI50 [30]: 1740 nM
- TGI [30]: 3350 nM
- GI50 [31]: 679 nM
- TGI [31]: 2200 nM
- GI50 [32]: 1320 nM
- TGI [32]: 2990 nM
- GI50 [33]: 1880 nM
- TGI [33]: 6610 nM
- GI50 [34]: 1610 nM
- TGI [34]: 3010 nM
- GI50 [35]: 1410 nM
- TGI [35]: 4490 nM
- GI50 [36]: 1890 nM
- TGI [36]: 7540 nM
- GI50 [37]: 1250 nM
- TGI [37]: 5820 nM
- GI50 [38]: 654 nM
- TGI [38]: 2830 nM
- GI50 [39]: 1750 nM
- TGI [39]: 4850 nM
- GI50 [40]: 2510 nM
- TGI [40]: 6660 nM
- GI50 [41]: 1930 nM
- TGI [41]: 6520 nM
- GI50 [42]: 1260 nM
- TGI [42]: 2600 nM
- GI50 [43]: 640 nM
- TGI [43]: 2490 nM
- GI50 [44]: 1940 nM
- TGI [44]: 42800 nM
- GI50 [45]: 1510 nM
- TGI [45]: 2950 nM
- GI50 [46]: 2500 nM
- TGI [46]: 88300 nM
- GI50 [47]: 2300 nM
- TGI [47]: > 100000 nM
- GI50 [48]: 1260 nM
- TGI [48]: 2550 nM
- GI50 [49]: 1380 nM
- TGI [49]: 3030 nM
- GI50 [50]: 505 nM
- TGI [50]: 1680 nM
- GI50 [51]: 1380 nM
- TGI [51]: 4400 nM
- GI50 [52]: 1220 nM
- TGI [52]: 3450 nM
- GI50 [53]: 3060 nM
- TGI [53]: > 100000 nM
- GI50 [54]: 1980 nM
- TGI [54]: 5780 nM
- GI50 [55]: 1450 nM
- TGI [55]: 2810 nM
